Measurements reported in patent US12630560B2, “Solid forms, pharmaceutical compositions and preparation of heteroaromatic macrocyclic ether compounds” (Nuvalent, Inc., priority 2021, dated 2026).
Counter-ions that a name gives are not always drawn.

Columns and labels:
Assay type in all cases: physicochemical
[1] = 7-days stability studies of solid forms (storage, then XRPD and HPLC)
Experimental: Form 1 of Compound 1: Method. About 10 mg of Form 1 of Compound 1 was placed in a 2 ml vial and stored for 7 days under the following conditions: A) 40° C./75% RH (open vial); B) 25° C./60% RH (open vial); C) 80° C. (sealed vial). Solids were analyzed by XRPD and submitted for HPLC.
Form 2 of Compound 1: Method. Portions of Form 1 of Compound 1 (10 mg) were placed in 1.5 ml vials. One vial was stored for 7 days under each of the following conditions: A) 40° C./75% RH (open vial); B) 25° C./60% RH (open vial); C) 80° C. (sealed vial). Solids were analyzed by XRPD and submitted for HPLC.

[2] = Dynamic vapour sorption (DVS); conditions: for weight increase (DVS): relative humidity from about 0 to about 90%, about 25° C.
Experimental: Approximately, 10-20 mg of sample was placed into a mesh vapour sorption balance pan and loaded into a DVS Advantage dynamic vapour sorption balance by Surface Measurement Systems. The sample was subjected to a ramping profile from 40-90% relative humidity (RH) at 10% increments, maintaining the sample at each step until a stable weight had been achieved (dm/dt 0.004%, minimum step length 30 minutes, maximum step length 500 minutes) at 25° C. After completion of the sorption cycle, the sample was dried using the same procedure to 0% RH and then a second sorption cycle back to 40% RH. Two cycles were performed. The weight change during the sorption/desorption cycles were plotted, allowing for the hygroscopic nature of the sample to be determined. XRPD analysis was then carried out on any solid retained.

[3] = Compression test at 100 and 250 MPa (XRPD after compression)
Experimental: Approximately 100 mg of Form 1 of Compound 1 was placed inside a FT-IR press, and a pressure of 100 MPa was applied and held for 60 seconds. The resulting material was analyzed by XRPD.
Approximately 100 mg of Form 1 of Compound 1 was placed inside the apparatus of the compression clamp. This apparatus was placed inside the compression clamp and a pressure of 250 MPa was applied and hold for 60 seconds. The resulting material was analyzed by XRPD.

[4] = Stability study of Compound 1 (Form 1) drug substance at three storage conditions
Experimental: A stability study was conducted for Compound 1 (Form 1) at three storage conditions: (1) 5° C.±3° C., ambient relative humidity (RH), data collected at 0 and 1 month; (2) 25° C.±2° C., 60%±5% RH, data collected at 0, 1, 3, 6, 9, and 12 months; and (3) 40° C.±2° C., 75%±5% RH, data collected at 0, 1, 3, and 6 months.

[5] = Stability studies of Form A of a besylate salt (XRPD); conditions: 40° C. and 75% RH for 7 days
From the text: No changes in form were observed by XRPD.

For `CCn1ncc2c1-c1cnc(N)c(c1)O[C@H](C)c1cc(F)ccc1-c1nn(C)nc1C2` [Form 2], which “solid form stability by XRPD” value ([1]; 25° C./60% RH, 7 days) is on record?
The value was “stable”.

And the “solid form stability by XRPD” value ([1]; 40° C./75% RH, 7 days)?
The value was “stable”.

And the “solid form by XRPD after storage” value ([1]; 80° C. (sealed vial), 7 days)?
Its value is “correspond to that for Form 7”.

For `CCn1ncc2c1-c1cnc(N)c(c1)O[C@H](C)c1cc(F)ccc1-c1nn(C)nc1C2` [Form 7], which “weight increase (DVS)” value [2] is on record?
The value was “about 0.27%”.

Which “% Purity by HPLC” value ([1]; 25° C./60% RH (open vial), 7 days) does the source give for `CCn1ncc2c1-c1cnc(N)c(c1)O[C@H](C)c1cc(F)ccc1-c1nn(C)nc1C2` [Form 1 of Compound 1] here?
The value was 99.58%.

What about the “% Purity by HPLC” value ([1]; 40° C./75% RH (open vial), 7 days) of the same molecule?
Its value is 99.66%.

And the “% Purity by HPLC” value ([1]; 80° C. (sealed vial), 7 days)?
The value was 99.58%.

And the “stability of the solid form” value ([1]; all tested conditions (40° C./75% RH, 25° C./60% RH, 80° C.), 7 days)?
The value was “stable under all tested conditions”.

And the “purity by HPLC after storage” value ([1]; all three samples: 40° C./75% RH, 25° C./60% RH, 80° C., one week)?
The value was over 99.5%.

What about the hygroscopicity [2] of the same molecule?
Its hygroscopicity is “non-hygroscopic”.

What about the “weight increase (DVS)” value [2] of the same molecule?
Its value is “about 0.25%”.

What about the “stability to compression (crystalline form by XRPD)” value ([3]; 100 MPa for 60 seconds) of the same molecule?
Its value is “stable”.

And the “stability to compression (crystalline form by XRPD)” value ([3]; 250 MPa for 60 seconds)?
The value was “stable”.

With `CCn1ncc2c1-c1cnc(N)c(c1)O[C@H](C)c1cc(F)ccc1-c1nn(C)nc1C2` [Compound 1] as the molecule, how does the “chemical and physical stability (description, assay, related substances, water content, polymorphic form, chiral purity)” value ([4]; 25° C.±2° C./60%±5% RH, 12 months) read?
The value was “No meaningful changes”.

What about the “chemical and physical stability (description, assay, related substances, water content, polymorphic form, chiral purity)” value ([4]; 40° C.±2° C./75%±5% RH, 6 months) of the same molecule?
Its value is “No meaningful changes”.

And the “compliance with acceptance criteria (purity at least 97%, individual impurities ≤0.2%, total ≤2.0%, enantiomeric purity at least 99.5%, Form 1)” value ([4]; all time points)?
The value was “complied with the acceptance criteria”.

Which hygroscopicity [2] does the source give for `CCn1ncc2c1-c1cnc(N)c(c1)O[C@H](C)c1cc(F)ccc1-c1nn(C)nc1C2` [Form A of a besylate salt of Compound 1] here?
The hygroscopicity was “hygroscopic”.

What about the “weight increase (DVS)” value [2] of the same molecule?
The value was “about 2%”.

What about the “weight increase (DVS)” value ([2]; listed as Form A of a Besylate Salt of Compound 1) of the same molecule?
The value was 2%.

What about the “physical stability (form by XRPD)” value [5] of the same molecule?
The value was “physically stable”.
